Measured values as given in ChEMBL document CHEMBL4393697, “Lipophilic efficient phenylthiazoles with potent undecaprenyl pyrophosphatase inhibitory activity” (Eur J Med Chem, 2019).
In brackets after ≈: the same amount, converted by molar mass.

Columns and labels:
Streptococcus pneumoniae [1] = assay: Antibacterial activity against Methicillin resistant Streptococcus pneumoniae ATCC 700677 assessed as reduction in bacterial cell growth incubated for 18 to 20 hrs by broth microdilution method; type: functional
Streptococcus pneumoniae [2] = assay: Bactericidal activity against Methicillin resistant Streptococcus pneumoniae ATCC 700677 assessed as reduction in bacterial cell growth incubated for 18 to 20 hrs followed by re-plating on tryptic soy agar plates at 37 degC for 18 hrs by broth microdilution assay; type: functional
Staphylococcus aureus [3] = assay: Bactericidal activity against methicillin-resistant Staphylococcus aureus USA300 assessed as reduction in bacterial cell growth incubated for 18 to 20 hrs followed by re-plating on tryptic soy agar plates at 37 degC for 18 hrs by broth microdilution assay; type: functional
Staphylococcus aureus [4] = assay: Bactericidal activity against methicillin resistant Staphylococcus aureus NRS119 assessed as reduction in bacterial cell growth incubated for 18 to 20 hrs followed by re-plating on tryptic soy agar plates at 37 degC for 18 hrs by broth microdilution assay; type: functional
Staphylococcus aureus [5] = assay: Antibacterial activity against vancomycin resistant Staphylococcus aureus VRS12 assessed as reduction in bacterial cell growth incubated for 18 to 20 hrs by broth microdilution method; type: functional
Streptococcus pneumoniae [6] = assay: Bactericidal activity against Cephalosporin resistant Streptococcus pneumoniae ATCC 51916 assessed as reduction in bacterial cell growth incubated for 18 to 20 hrs followed by re-plating on tryptic soy agar plates at 37 degC for 18 hrs by broth microdilution assay; type: functional
[7] = test system: Staphylococcus epidermidis; assay: Antibacterial activity against methicillin resistant Staphylococcus epidermidis NRS101 assessed as reduction in bacterial cell growth incubated for 18 to 20 hrs by broth microdilution method; type: functional
Staphylococcus aureus [8] = assay: Antibacterial activity against vancomycin resistant Staphylococcus aureus VRS10 assessed as reduction in bacterial cell growth incubated for 18 to 20 hrs by broth microdilution method; type: functional
Escherichia coli [9] = assay: BActericidal activity against Escherichia coli BW25113 assessed as reduction in bacterial cell growth incubated for 18 to 20 hrs followed by re-plating on tryptic soy agar plates at 37 degC for 18 hrs by broth microdilution assay; type: functional
Escherichia coli [10] = assay: Antibacterial activity against Escherichia coli BW25113 assessed as reduction in bacterial cell growth incubated for 18 to 20 hrs by broth microdilution method; type: functional
J774 [11] = assay: Cytotoxicity against mouse J774 cells reduction in cell viability up to 32 ug/ml incubated for 24 hrs by MTS assay; type: cell-based; settings: j774, 24 h
Staphylococcus aureus [12] = assay: Antibacterial activity against vancomycin resistant Staphylococcus aureus VRS11a assessed as reduction in bacterial cell growth incubated for 18 to 20 hrs by broth microdilution method; type: functional
Staphylococcus aureus [13] = assay: Antibacterial activity against methicillin resistant Staphylococcus aureus NRS119 assessed as reduction in bacterial cell growth incubated for 18 to 20 hrs by broth microdilution method; type: functional
Staphylococcus aureus [14] = assay: Antibacterial activity against methicillin resistant Staphylococcus aureus USA400 assessed as reduction in bacterial cell growth incubated for 18 to 20 hrs by broth microdilution method; type: functional
Staphylococcus aureus [15] = assay: Antibacterial activity against Staphylococcus aureus NRS107 assessed as reduction in bacterial cell growth incubated for 18 to 20 hrs by broth microdilution method; type: functional
[16] = test system: Staphylococcus epidermidis; assay: Bactericidal activity against methicillin resistant Staphylococcus epidermidis NRS101 assessed as reduction in bacterial cell growth incubated for 18 to 20 hrs followed by re-plating on tryptic soy agar plates at 37 degC for 18 hrs by broth microdilution assay; type: functional
Listeria monocytogenes [17] = assay: Antibacterial activity against Listeria monocytogenes ATCC 19111 assessed as reduction in bacterial cell growth incubated for 18 to 20 hrs by broth microdilution method; type: functional
Listeria monocytogenes [18] = assay: Bactericidal activity against Listeria monocytogenes ATCC 19111 assessed as reduction in bacterial cell growth incubated for 18 to 20 hrs followed by re-plating on tryptic soy agar plates at 37 degC for 18 hrs by broth microdilution assay; type: functional
Acinetobacter baumannii [19] = assay: Antibacterial activity against Acinetobacter baumannii ATCC 19606 assessed as reduction in bacterial cell growth incubated for 18 to 20 hrs by broth microdilution method; type: functional
Staphylococcus aureus [20] = assay: Bactericidal activity against vancomycin resistant Staphylococcus aureus VRS11a assessed as reduction in bacterial cell growth incubated for 18 to 20 hrs followed by re-plating on tryptic soy agar plates at 37 degC for 18 hrs by broth microdilution assay; type: functional
Staphylococcus aureus [21] = assay: Bactericidal activity against Staphylococcus aureus ATCC 6538 assessed as reduction in bacterial cell growth incubated for 18 to 20 hrs followed by re-plating on tryptic soy agar plates at 37 degC for 18 hrs by broth microdilution assay; type: functional
Staphylococcus aureus [22] = assay: Antibacterial activity against methicillin-resistant Staphylococcus aureus USA300 assessed as reduction in bacterial cell growth incubated for 18 to 20 hrs by broth microdilution method; type: functional
Enterococcus faecium [23] = assay: Antibacterial activity against vancomycin resistant Enterococcus faecium ATCC 700221 assessed as reduction in bacterial cell growth incubated for 18 to 20 hrs by broth microdilution method; type: functional
Escherichia coli [24] = assay: Antibacterial activity against Escherichia coli JW55031 harboring deltatolC mutant assessed as reduction in bacterial cell growth incubated for 18 to 20 hrs by broth microdilution method; type: functional
Pseudomonas aeruginosa [25] = assay: Bactericidal activity against Pseudomonas aeruginosa ATCC 15442 assessed as reduction in bacterial cell growth incubated for 18 to 20 hrs followed by re-plating on tryptic soy agar plates at 37 degC for 18 hrs by broth microdilution assay; type: functional
Acinetobacter baumannii [26] = assay: Bactericidal activity against Acinetobacter baumannii ATCC 19606 assessed as reduction in bacterial cell growth incubated for 18 to 20 hrs followed by re-plating on tryptic soy agar plates at 37 degC for 18 hrs by broth microdilution assay; type: functional
Streptococcus pneumoniae [27] = assay: Antibacterial activity against Cephalosporin resistant Streptococcus pneumoniae ATCC 51916 assessed as reduction in bacterial cell growth incubated for 18 to 20 hrs by broth microdilution method; type: functional
Pseudomonas aeruginosa [28] = assay: Antibacterial activity against Pseudomonas aeruginosa ATCC 15442 assessed as reduction in bacterial cell growth incubated for 18 to 20 hrs by broth microdilution method; type: functional
Staphylococcus aureus [29] = assay: Bactericidal activity against vancomycin resistant Staphylococcus aureus VRS10 assessed as reduction in bacterial cell growth incubated for 18 to 20 hrs followed by re-plating on tryptic soy agar plates at 37 degC for 18 hrs by broth microdilution assay; type: functional
J774 [30] = assay: Cytotoxicity against mouse J774 assessed as reduction in cell viability at 16 ug/ml incubated for 24 hrs by MTS assay; type: cell-based; settings: j774, 24 h
[31] = Solubility of compound in PBS after 2 hrs by turbidity based absorbance analysis; type: physicochemical
Staphylococcus aureus [32] = assay: Antibacterial activity against Staphylococcus aureus ATCC 6538 assessed as reduction in bacterial cell growth incubated for 18 to 20 hrs by broth microdilution method; type: functional
Enterococcus faecium [33] = assay: Bactericidal activity against vancomycin resistant Enterococcus faecium ATCC 700221 assessed as reduction in bacterial cell growth incubated for 18 to 20 hrs followed by re-plating on tryptic soy agar plates at 37 degC for 18 hrs by broth microdilution assay; type: functional
Escherichia coli [34] = assay: Bactericidal activity against Escherichia coli JW55031 harboring deltatolC mutant assessed as reduction in bacterial cell growth incubated for 18 to 20 hrs followed by re-plating on tryptic soy agar plates at 37 degC for 18 hrs by broth microdilution assay; type: functional
Klebsiella pneumoniae [35] = assay: Bactericidal activity against Klebsiella pneumoniae BAA-1706 assessed as reduction in bacterial cell growth incubated for 18 to 20 hrs followed by re-plating on tryptic soy agar plates at 37 degC for 18 hrs by broth microdilution assay; type: functional
Enterococcus faecalis [36] = assay: Bactericidal activity against vancomycin resistant Enterococcus faecalis ATCC 51299 assessed as reduction in bacterial cell growth incubated for 18 to 20 hrs followed by re-plating on tryptic soy agar plates at 37 degC for 18 hrs by broth microdilution assay; type: functional
Enterococcus faecalis [37] = assay: Antibacterial activity against vancomycin resistant Enterococcus faecalis ATCC 51299 assessed as reduction in bacterial cell growth incubated for 18 to 20 hrs by broth microdilution method; type: functional
Staphylococcus aureus [38] = assay: Antibacterial activity against intracellular methicillin resistant Staphylococcus aureus USA400 infected in mouse J774 cells assessed as log10 reduction of viable bacterial cells incubated for 24 hrs followed by re-plating on tryptic soy agar plates at 37 degC for 18 to 22 hrs by broth microdilution assay; type: functional
Staphylococcus aureus [39] = assay: Bactericidal activity against Staphylococcus aureus NRS107 assessed as reduction in bacterial cell growth incubated for 18 to 20 hrs followed by re-plating on tryptic soy agar plates at 37 degC for 18 hrs by broth microdilution assay; type: functional
Klebsiella pneumoniae [40] = assay: Antibacterial activity against Klebsiella pneumoniae BAA-1706 assessed as reduction in bacterial cell growth incubated for 18 to 20 hrs by broth microdilution method; type: functional
Staphylococcus aureus [41] = assay: Bactericidal activity against vancomycin resistant Staphylococcus aureus VRS12 assessed as reduction in bacterial cell growth incubated for 18 to 20 hrs followed by re-plating on tryptic soy agar plates at 37 degC for 18 hrs by broth microdilution assay; type: functional

Which MIC (Streptococcus pneumoniae [1]) does the source give for C/C(=N\NC(=N)N)c1sc(-c2ccc(C#Cc3cccc(O)c3)cc2)nc1C here?
The MIC was 16 µg/mL (≈ 41.1 µM).

And the MBC (Streptococcus pneumoniae [2])?
Its MBC is 32 µg/mL (≈ 82.2 µM).

What about the MBC (Staphylococcus aureus [3]) of the same molecule?
Its MBC is 4 µg/mL (≈ 10.3 µM).

What about the MBC (Staphylococcus aureus [4]) of the same molecule?
Its MBC is 4 µg/mL (≈ 10.3 µM).

And the MIC (Staphylococcus aureus [5])?
The MIC was 4 µg/mL (≈ 10.3 µM).

What about the MBC (Streptococcus pneumoniae [6]) of the same molecule?
Its MBC is 32 µg/mL (≈ 82.2 µM).

What about the MIC [7] of the same molecule?
The MIC was 2 µg/mL (≈ 5.13 µM).

And the MIC (Staphylococcus aureus [8])?
The MIC was 4 µg/mL (≈ 10.3 µM).

What about the MBC (Escherichia coli [9]) of the same molecule?
The MBC was over 64 µg/mL.

And the MIC (Escherichia coli [10])?
Its MIC is over 64 µg/mL.

What about the Activity (J774 [11]) of the same molecule?
Its Activity is “Non-Toxic”.

What about the MIC (Staphylococcus aureus [12]) of the same molecule?
The MIC was 4 µg/mL (≈ 10.3 µM).

What about the MIC (Staphylococcus aureus [13]) of the same molecule?
Its MIC is 2 µg/mL (≈ 5.13 µM).

And the MIC (Staphylococcus aureus [14])?
Its MIC is 2 µg/mL (≈ 5.13 µM).

What about the MIC (Staphylococcus aureus [15]) of the same molecule?
The MIC was 4 µg/mL (≈ 10.3 µM).

And the MBC [16]?
The MBC was 2 µg/mL (≈ 5.13 µM).

What about the MIC (Listeria monocytogenes [17]) of the same molecule?
Its MIC is 8 µg/mL (≈ 20.5 µM).

What about the MBC (Listeria monocytogenes [18]) of the same molecule?
Its MBC is 64 µg/mL (≈ 164 µM).

What about the MIC (Acinetobacter baumannii [19]) of the same molecule?
The MIC was over 64 µg/mL.

And the MBC (Staphylococcus aureus [20])?
Its MBC is 4 µg/mL (≈ 10.3 µM).

What about the MBC (Staphylococcus aureus [21]) of the same molecule?
The MBC was 4 µg/mL (≈ 10.3 µM).

What about the MIC (Staphylococcus aureus [22]) of the same molecule?
Its MIC is 4 µg/mL (≈ 10.3 µM).

And the MIC (Enterococcus faecium [23])?
Its MIC is at most 0.5 µg/mL.

And the MIC (Escherichia coli [24])?
Its MIC is 64 µg/mL (≈ 164 µM).

And the MBC (Pseudomonas aeruginosa [25])?
Its MBC is over 64 µg/mL.

And the MBC (Acinetobacter baumannii [26])?
Its MBC is over 64 µg/mL.

And the MIC (Streptococcus pneumoniae [27])?
Its MIC is 8 µg/mL (≈ 20.5 µM).

And the MIC (Pseudomonas aeruginosa [28])?
Its MIC is over 64 µg/mL.

And the MBC (Staphylococcus aureus [29])?
The MBC was 4 µg/mL (≈ 10.3 µM).

And the Activity (J774 [30])?
The Activity was “Non-Toxic”.

What about the solubility kinetic at 2 h [31] of the same molecule?
Its solubility kinetic at 2 h is 55 µM (≈ 21.4 µg/mL).

What about the MIC (Staphylococcus aureus [32]) of the same molecule?
The MIC was 2 µg/mL (≈ 5.13 µM).

And the MBC (Enterococcus faecium [33])?
Its MBC is 1 µg/mL (≈ 2.57 µM).

What about the MBC (Escherichia coli [34]) of the same molecule?
Its MBC is over 64 µg/mL.

What about the MBC (Klebsiella pneumoniae [35]) of the same molecule?
The MBC was over 64 µg/mL.

What about the MBC (Enterococcus faecalis [36]) of the same molecule?
The MBC was 64 µg/mL (≈ 164 µM).

And the MIC (Enterococcus faecalis [37])?
Its MIC is 32 µg/mL (≈ 82.2 µM).

What about the Activity (Staphylococcus aureus [38]) of the same molecule?
Its Activity is 0.92 log10CFU.

And the MBC (Staphylococcus aureus [39])?
Its MBC is 4 µg/mL (≈ 10.3 µM).

What about the MIC (Klebsiella pneumoniae [40]) of the same molecule?
The MIC was over 64 µg/mL.

And the MBC (Staphylococcus aureus [41])?
Its MBC is 4 µg/mL (≈ 10.3 µM).
